Results on 2 compounds are retold here after patent US9249157B2, “Tricyclic heterocycle compounds” (BRISTOL-MYERS SQUIBB COMPANY, priority 2012, dated 2016).

A short description of series [1]: High Throughput Metabolic Stability Panel, human microsomes. The settings on record: 10 minute incubation, 0.5 μM, control compound expected range. Type of series: in vitro ADME. How it is done: (§1) High Throughput (HT) Metabolic Stability Panel
(§2) The metabolic stability assay evaluated CYP-mediated metabolic stability in vitro using human, rat, mouse, dog, and/or monkey microsomes after a ten-minute incubation. Each compound was tested in duplicate.
(§3) Test compound was received as a 3.5 mM stock solution in 100 percent DMSO. The test compound was diluted to create a 50 μM acetonitrile (ACN) solution containing 1.4% DMSO, which was then used as a 100× stock for incubation with microsomes. Each compound was tested in duplicate separately in each of three species in the Metabolic Stability-Human, Rat, and Mouse assay suite or as individual species in the Metabolic Stability-Dog or Metabolic Stability-Monkey suites. Compound, NADPH, and liver microsome solutions were combined for incubation in three steps:
(§4) 1. 152 μl of liver microsome suspension, protein concentration of 1.1 mg/ml in 100 mM NaPi, pH 7.4, 5 mM MgCl2 buffer, was pre-warmed at 37° C.
(§5) 3. The reaction was initiated by the addition of 17 μl of pre-warmed 10 mM NADPH solution in 100 mM NaPi, pH 7.4.
(§6) The reaction components were mixed well, and 75 μl of the reaction mixture was immediately transferred into 150 μl quench/stop solution (zero-time point, T0). Reactions were incubated at 37° C. for 10 minutes and then an additional 75 μl aliquot was transferred into 150 μl quench solution. […]

Series [2] in a line: High Throughput Metabolic Stability Panel, rat microsomes. Type of series: in vitro ADME. The settings on record: 10 minute incubation, 0.5 μM, control compound expected range. The method, then: as §1, §2, §3, §4, §5, §6
Series [3] can be described thus: High Throughput Metabolic Stability Panel, mouse microsomes. The settings on record: 10 minute incubation, 0.5 μM, control compound expected range. Format: in vitro ADME. The method, then:
as §1, §2, §3, §4, §5, §6

Series [4] is described as follows: High Throughput Metabolic Stability Panel, monkey microsomes. Format: in vitro ADME. The settings on record: 10 minute incubation, 0.5 μM, control compound expected range. The method, then: as §1, §2, §3, §4, §5, §6
Series [5] is described as follows: High Throughput Metabolic Stability Panel, dog microsomes. Type of series: in vitro ADME. The settings on record: 10 minute incubation, 0.5 μM, control compound expected range. How it is done: as §1, §2, §3, §4, §5, §6
Another series concerns TALL1. Description: Human Tumor Xenograft Models in Mice, TALL1. Format: in vivo. The settings on record: 60 mg/kg, QDx10, oral administration; LCK = Log Cell Kill. An excerpt: Human Tumor Xenograft Models in Mice
All rodents were obtained from Harlan Sprague Dawley Co. (Indianapolis, Ind.), and maintained in an ammonia-free environment in a defined and pathogen—free colony. All mice were quarantined approximately 1 week prior to their use for tumor propagation and drug efficacy testing. Mice were fed food and water ad libitum. The animal care program of Bristol-Myers Squibb Pharmaceutical Research Institute is fully accredited by the American Association for Accreditation of Laboratory Animal Care (AAALAC). All experiments were performed in accordance with Bristol-Myers Squibb (BMS) animal test methods and guidelines. […]
The required numbers of animals needed to detect a meaningful response were pooled at the start of the experiment and each was given a subcutaneous implant of a tumor fragment (˜20 mg) with a 13-gauge trocar. Tumors were allowed to grow to the pre-determined size window (tumors outside the range were excluded) and animals were evenly distributed to various treatment and control groups. […]
Tumor response was determined by measurement of tumors with a caliper twice a week, until the tumors reached a predetermined “target” size of 0.5 gm or 1 gm depending on the tumor type. […]
Tumor response criteria are expressed in terms of tumor growth inhibition (% TGI). […] For this purpose, the tumor weight of a group is expressed as […] tumor weight (MTW). […]
For orientation: In xenograft studies the graft and the host belong to different species.

A further series has as its system human Notch 3. Description: Notch-CBF1 Transactivation Assay (Notch 3). Type of series: cell-based. The settings on record: HeLa cells transfected with truncated Notch 3 and CBF1 luciferase reporter; 18 hours incubation. An excerpt:
Notch-CBF1 Transactivation Assay
The Notch-CBF1 (C-promoter binding factor I) cell based transactivation assay is based on the ability of the released Notch intracellular domain fragments (NICDs) to function as transcription factors in conjunction with CBF1 and other nuclear factors. Luciferase assays were used to measure the antagonism of Notch-CBF1 transcriptional activity. HeLa cervical cancer cells are transiently co-transfected with pCDNA3.1/Hygro plasmids containing truncated Notch 1, Notch 2, Notch 3, or Notch 4 receptors and a PGL3 luciferase reporter vector containing 4 copies of CBF1 binding site. The cells were then tested for Notch-CBF1 activity in the absence or presence of test compounds. HeLa cells, maintained in DMEM (high glucose with HEPES), 1× glutamine/penicillin/streptomycin and 10% Fetal Bovine serum, were transiently transfected in a T175 Flask (4.5×10^6 cells/flask) using the Monster Transfection Kit (Minis #MIR2906) according to manufacturers specifications. Table 1 denotes respective DNA quantity for the transfections.
Six hours post-transfection, cells were trypsinized and plated into a 384-well black Poly-D-lysine coated tissue culture plate at a density of 5×10^3 cells/well in 95 μL assay media (DMEM (high glucose with HEPES), 1× glutamine/penicillin/streptomycin, 0.0125% BSA, 1× non-essential amino acids). Assay media (5 μL) containing test compounds in final concentrations ranging from 5 μM to 8.4×10^−5 μM (3 fold serial dilutions) were added to the cells and the cell plates were then incubated for 18 hours at 37° C. and 5% CO2. Control wells contained DMSO vehicle (total counts) or 0.5 μM of an in-house small molecule inhibitor (background counts). Duplicates were used for each sample. Luciferase activity was measured after a 20-minute incubation with 50 μl STEADY-GLO® luciferase reagents according to manufacturer's specifications (Promega, Cat. #E2550) and analyzed by Envision plate reader (PerkinElmer, Boston, Mass.).
The antagonist effect of compounds was expressed as 100×[1−(average sample−average background)/(average total−average background)] where sample is the luciferase activity in the presence of test compound, background is equal to the luciferase activity in the presence of the small molecule inhibitor control and the total is signal induced in DMSO wells.

Each structure is given as a SMILES string.

Regarding `CCc1nn(CCCN2CCN(c3cccc(Cl)c3)CC2)c(=O)n1CCOc1ccccc1` [Nefazodone], the “Average Percent Remaining ± SD, Human” value in series [1] is 0.4 ± 0.4%. In addition, in series [2], the “Average Percent Remaining ± SD, Rat” value was found to be 0.7 ± 0.6%. Moreover, in series [3], the “Average Percent Remaining ± SD, Mouse” value came to 0.4 ± 0.3%. Further, the “Average Percent Remaining ± SD, Monkey” value in series [4] is listed as 0.6 ± 0.5%. For the same compound, in series [5], the “Average Percent Remaining ± SD, Dog” value is on record as 0.4 ± 0.4%.
With `CCC[C@H](C(N)=O)[C@@H](CCC(F)(F)F)C(=O)N[C@H]1N=C(c2ccccc2)c2cccc3c2N(CCO3)C1=O` [Example 7, (2R,3S)—N-((6S)-5-Oxo-8-phenyl-2,3,5,6-tetrahydro[1,4]oxazino[2,3,4-jk][1,4]benzodiazepin-6-yl)-3-propyl-2-(3,3,3-trifluoropropyl)succinamide], in the series on TALL1, the “Antitumor Activity TALL1 (LCK)” value was 0.7. The compound also gave an IC50 in the series with human Notch 3 of 14.8 nM.

Usually IC50 stands for the point on the concentration scale where inhibition reaches its midpoint.
